# Laboratory results published in ChEMBL document CHEMBL3046152, “Synthesis and fungicide activity of 2,3-dihydroimidazo [2,1-b]thiazole-5-carboxamides” (1995).
# What was measured:
# Type in all cases: functional
# Parastagonospora nodorum [1] = assay: Fungicidal activity against Phaeosphaeria nodorum inoculated in 24 hr compound-treated plant foliage assessed as disease control at 40 ppm measured after 7 days
# Oculimacula yallundae [2] = assay: Fungicidal activity against Oculimacula yallundae inoculated in 24 hr compound-treated plant foliage assessed as disease control at 40 ppm measured after 7 days
# Oculimacula yallundae [3] = assay: Fungicidal activity against Oculimacula yallundae inoculated in 24 hr compound-treated plant foliage assessed as disease control at 200 ppm measured after 7 days
# Parastagonospora nodorum [4] = assay: Fungicidal activity against Phaeosphaeria nodorum inoculated in 24 hr compound-treated plant foliage assessed as disease control at 200 ppm measured after 7 days
# Parastagonospora nodorum [5] = assay: Fungicidal activity against Phaeosphaeria nodorum inoculated in 24 hr compound-treated plant foliage assessed as disease control at 20 ppm measured after 7 days
# Oculimacula yallundae [6] = assay: Fungicidal activity against Oculimacula yallundae inoculated in 24 hr compound-treated plant foliage assessed as disease control at 20 ppm measured after 7 days
Compound,Activity (Parastagonospora nodorum [1]),Activity (Oculimacula yallundae [2]),Activity (Oculimacula yallundae [3]),Activity (Parastagonospora nodorum [4]),further results
O=C(Nc1c(Cl)cccc1Cl)c1c(-c2ccccc2)nc2n1CCS2(=O)=O,23%,9%,–,–,–
O=C(Nc1c(Cl)cccc1Cl)c1c(Cl)nc2n1CCS2(=O)=O,0%,39%,–,–,–
O=C(c1c(Cl)nc2n1CCS2(=O)=O)N1CCCCC1,–,–,0%,23%,–
O=C(c1c(Cl)nc2n1CCS2(=O)=O)N1CCOCC1,23%,0%,–,–,–
CN(C(=O)c1c(Cl)nc2n1CCS2(=O)=O)c1ccccc1,–,–,39%,0%,–
O=C(Nc1ccccn1)c1c(Cl)nc2n1CCS2(=O)=O,–,–,100%,0%,–
CCNC(=O)c1c(Cl)nc2n1CCS2(=O)=O,23%,39%,–,–,–
Cc1nc2n(c1C(=O)Nc1c(Cl)cccc1Cl)CCS2(=O)=O,23%,0%,–,–,–
Cc1nc2n(c1C(=O)N1CCCCC1)CCS2(=O)=O,–,–,0%,23%,–
Cc1nc2n(c1C(=O)Nc1ccccn1)CCS2(=O)=O,–,–,100%,0%,–
Cc1nc2n(c1C(=O)Nc1ccccc1)CCS2(=O)=O,–,–,54%,23%,–
C[Si](Cn1cncn1)(c1ccc(F)cc1)c1ccc(F)cc1 [FLUSILAZOLE],–,–,–,–,Activity (Parastagonospora nodorum [5]): 99%; Activity (Oculimacula yallundae [6]): 98%
